The values that follow come from patent EP2557075A1, “New triazene compounds for treating cancer” (Trin Therapeutics GmbH, priority 2011, dated 2013).

In data set [1] the test system is HepG2. Description: Intracellular metabolisation of triazenes in HepG2 cell culture (Experiment 1). Format: in vitro ADME. Particulars: HepG2, 100nmol/ml, 100% FCS, binnen 6 Stunden. As for the experimental part: Es wird gezeigt, dass Verbindungen nach Beispiel 1 schneller und in größerer Menge intrazellulär metabolisiert werden als die als Vergleichssubstanzen eingesetzten Verbindungen nach Präparat 2 und 5 (entsprechend Verbindungen nach Präparat 2 und Beispiel 2a jeweils der WO 2009/004060).
Die getesteten Verbindungen wurden wie folgt gelöst: • Erfindungsgemäße Verbindung: • Beispiel 1 : in 20 mg/ml DMSO
(§1) Vergleichssubstanzen: • Präparat 2: in 50mg/ml DMSO, • Präparat 5: in 50mg/ml Wasser.
Alle drei Substanzen wurden äquimolar in einer Dosis von 100nmol/ml auf 1 x 10^7 HepG2 bzw. MCF-7-Zellen gegeben. Als Zellkulturmedium wurde 100% fötales Kälberserum (FCS) verwendet. Für den Versuch wurde der Gehalt aus Ausgangsprodukt und Metaboliten im Zellüberstand nach 1, 3 und 6 (HepG2) bzw. 1,3 und 20 Stunden (MCF-7) Inkubationszeit ermittelt. Alle drei Substanzen zeigten in Kontrollversuchen mit 100% FCS nach 40 Stunden metabolische Stabilität.

Data set [2] relates to HepG2. In words: Intracellular uptake of triazenes in HepG2 cells (Experiment 2). Format: in vitro ADME. The note with it: HepG2, 50.000ng/ml, 10.000ng/ml O6-Benzylguanin, 2, 4 und 20 Stunden. The procedure: (§2) Es wird gezeigt, dass Verbindungen nach Beispiel 1 schneller und in größerer Menge intrazellulär aufgenommen werden als die als Vergleichssubstanzen eingesetzten Verbindungen nach Präparat 2 und 5 (entsprechend Verbindungen nach Präparat 2 und Beispiel 2a jeweils der WO 2009/004060).
(§3) Die getesteten Verbindungen wurden wie folgt gelöst: • Erfindungsgemäße Verbindung: • Beispiel 1: in 20 mg/ml DMSO
as §1
(§4) Alle drei Substanzen wurden in einer Dosis von 50.000ng/ml auf 2 x 10^7 HepG2 und HCT-8 sowie 2 x 10^6-MDA-MB231 Zellen gegeben. Als Zellkulturmedium wurde 100% (MDA-MB231: 50%) fötales Kälberserum (FCS) verwendet. Zudem wurde bei den Versuchen mit HepG2 und HCT-8 noch 10.000ng/ml O6-Benzylguanin zugesetzt. Für den Versuch wurde die intrazelluläre Konzentration von Ausgangsprodukt und Metaboliten nach 2, 4 und 20 (HepG2), 2 und 3,5 und 20 Stunden (MDA-MB231) und 2,4, 24 und 48 Stunden (HCT-8) Inkubationszeit ermittelt. Alle drei Substanzen zeigten in Kontrollversuchen mit 100% FCS nach 40 Stunden metabolische Stabilität.

A further data set concerns HCT-8. Description: Intracellular uptake of triazenes in HCT-8 cells (Experiment 2). The format is in vitro ADME. Particulars: HCT-8, 50.000ng/ml, 10.000ng/ml O6-Benzylguanin, first two time points (2, 4 Stunden). The procedure: as §2, §3, §1, §4
A further data set relates to MDA-MB231. In words: IC50 of triazenes in MDA-MB231 cell line (Experiment 3). The format is cell-based. The note with it: Homo sapiens, MDA-MB-231; IC50 für die MDA-MB231 gemäß Experiment 3; used as incubation concentration for PBC. An excerpt: (§5) Die nachfolgenden Experimente 3 und 4 zeigen, dass die erfindungsgemäßen neuen Triazenverbindungen eine vergleichbare Anti-Tumorwirkung (IC50) in zahlreichen Krebszelllinien wie der HepG2 (Leber), HCT8 (Darm), DU-145 (Prostata), MCF-7 und MDA-MB-231 (Brust) und MiaPaca-2 (Bauchspeicheldrüse) bei bis zu 100fach niedrigeren Konzentrationen zeigen als vergleichbare Triazene wie DTIC, TMZ oder Substanzen wie sie in der WO 2009/004060 und der DE 1 7931 1 5 beschrieben sind.
(§6) Verschiedene Triazene wie erfindungsgemäße Verbindungen nach Beispiel 1, DTIC, TMZ sowie Verbindungen nach Präparat 2 und 5 (entsprechend Verbindungen nach Präparat 2 und Beispiel 2a jeweils der WO 2009/004060) sowie Verbindungen nach Beispiel 33 der DE1793115 wurden in DMSO bzw. Wasser gelöst.
Periphäre Blutzellen (PBC) werden jeweils mit der IC50 für die MDA-MB231 gemäß Experiment 3 der entsprechenden Substanzen inkubiert. Es wird gezeigt, dass die erfindungsgemäße Verbindung nach Beispiel 1 nicht mehr DNA-Schädigungen in den PBC erzeugt als eine Negativkontrolle, […]

The subject of data set [3] is MCF-7, MB-231, HepG2, HCT8, DU-145. Description: IC50 of triazenes in various tumour cell lines (Experiment 3). Format: cell-based.
Excerpt: as §5, §6

Data set [4] in a line: Formulation trials for intravenous application (Experiment 8). Format: physicochemical. The procedure: Um die Testergebnisse aus Experiment 7 in einem in-vivo Xenograft Modell zu bestätigen, wurden Formulierungsversuche mit Verbindungen nach Beispiel 1 sowie der Verbindung nach Beispiel 2 aus DE 1 793 1 15, als den wirksamsten Verbindungen aus Experiment 7, unternommen.
15mg der Verbindung nach Beispiel 1 werden in 30µL DMSO ([…]) gelöst. Diese Stocklösung wird in 270µL 1 M Na2CO3 Lösung gegeben und nur leicht geschwenkt, nicht aber mittels Ultraschallbad behandelt.
Gleichermaßen sollte eine Formulierung für Verbindungen nach Beispiel 2 aus DE 1 7 93 1 15 hergestellt werden. Hier wurden 15µL der Verbindung nach Beispiel 2 vorgelegt. Bei einer Dichte von 1,08g/ml entsprach dies 16,2mg der Verbindung nach Beispiel 2. Dazu wurden 32,4µL DMSO gegeben. […] Sodann wurden 90µL einer frisch hergestellten 1 molaren Na2CO3 Lösung vorgelegt und 10µL der Lösung der Verbindung nach Beispiel 2 hinzugegeben. […] Auch mittels Ultraschallbad konnte keine Auflösung des erzeugten Niederschlags herbeiführen.

The next data set deals with HL-60. Description: Cell cycle analysis by flow cytometry in HL-60 (Experiment 9). The format is cell-based. An excerpt:
Die Progression durch den Zellzyklus ist charakterisiert durch die mitotische Teilung (M-Phase) und der sich anschließenden Interphase, Die Interphase gliedert sich wiederum in die G1 -, S- und G2-Phase, In der G1-Phase beginnt die Zelle zu wachsen und es liegt ein vollständiger Chromosomensatz vor. In der S-Phase erfolgt die Replikation der DNA, wodurch an ihrem Ende der zweifache Chromosomensatz vorliegt. In der G2-Phase bereitet sich die Zelle auf die mitotische Teilung vor, an dessen Ende wieder der einfache Chromosomensatz vorhanden ist. Zusätzlich zu diesen Phasen kann eine sog. sub-G1-Phase vorliegen. Diese ist charakterisiert durch fragmentierte, apoptotische Zellen, die durch degradierte DNA charakterisiert ist. In welchem Stadium sich die Zelle befindet bzw. arretiert sein kann, lässt sich mittels Durchflusszytometrie bestimmen (Brockhoff et al. 2007; Lenz et al. 2007).
Zellkulturen von MDA-MB231 bzw. HL-60 wurden mit der IC50 (MDA-MB231) bzw. IC90 (HL-60) der beiden Test-Substanzen für bis zu 72 Stunden inkubiert und auf die Zellzyklusentwicklung hin untersucht.
In general terms: Flow cytometry measures light scatter and fluorescence of single cells or particles in a stream.

Molecules are shown by their SMILES. Entries after “also recorded” stand apart in the source; their conditions may differ. A value given as a limit tells only on which side of the number the result lay.

`CN(C)N=Nc1ccc(C(=O)c2ccc(O)cc2)cc1` [Beispiel 1] came in with an Ausgangssubstanz metabolisiert in the data set on HepG2 [1] of 28%. In the data set with HepG2 [2], the “intrazelluläre Konzentration vs. Vergleichssubstanzen” value was “deutlich schneller und in höheren Konzentrationen intrazellulär nachweisbar”. In addition, the “intrazelluläre Konzentration vs. Vergleichssubstanzen” value with HCT-8 is listed as “deutlich schneller und für die ersten beiden Messpunkte auch in höherer Konzentration intrazellulär nachweisbar”. The compound also gave an IC50 in the data set on MDA-MB231 of 27.5 µM. For the same compound, the “antitumorale Aktivität (IC50) compared with other triazenes” value in data set [3] is given as “deutlich wirksamer; also recorded: höhere antitumorale Aktivität”. Also, in data set [4] (15mg in 30µL DMSO + 270µL 1 M Na2CO3, Raumtemperatur), the “Stabilität der gebrauchsfertigen Lösung” value is on record as “unter Raumtemperatur stabil”. In addition, the “Löslichkeit in der Formulierung” value in data set [4] (DMSO stock solution given into 1 M Na2CO3 Lösung) is reported as “vollständig löst”. Moreover, the “stabile und verträgliche Formulierung” value in data set [4] (Lösungsmittel wie Cremophor, PEG400, Tween80, Poloxamer) is reported as “nicht erreicht werden konnte”. Also, in the data set with HL-60 (HL-60, IC90, nach 24 Stunden), the “Zellen in der G1 Phase” value is given as below 2% and the “eingesetzte Zellen tot” value is given as around 40%. Further, the Zellzyklus entry with HL-60 (HL-60, incubated with IC90, nach 12 bzw. 24 Stunden) is “ausgeprägten G2 Arrest”.

What is called IC50 is the concentration that gives 50% inhibition. A lower IC50 goes with inhibition by little substance.
